Columns and labels:
[1] = tested on: human pancreatic cancer cell line MiaPaCa2 (ATCC CRL-1420); assay: Cell growth assay (CellTiterGlo, 72 hours); type: cell-based; details: for IC50: MIA PaCa-2, MiaPaCa2 cells, 72 hours, read-out: IC50 MiaPaCa; for inhibition at 100 µM: MIA PaCa-2, at 100 μM, read-out: Inhibition of MiaPaCa growth at indicated concentration
Method: The inhibition of cell growth by the compounds was tested by exposing the human pancreatic cancer cell line MiaPaCa2 (ATCC CRL-1420) to the compounds. The assay was performed in 384 well clear bottom white microtiter plates (Greiner #781098). Each well was seeded with 10^3 cells in 20 μl of Dulbecco's modified Eagle's medium (Sigma D6796) supplied with 10% fetal calf scrum (Sigma F7524), 2.5% horse serum (Sigma H0146), 1% Penicillin-Streptomycin (Sigma P0781), 1% MEM nonessential amino acid solution 100× (Sigma M71459) and 1% 200 mM L-Glutamine (Sigma G7513) culture medium. After overnight incubation at 37° C. in 5% CO2 the compounds were added in the following concentrations: 100, 50, 20, 10, 5, 2, 1, 0.5, 0.2 and 0.1 μM. Each compound concentration was tested in quadruplicate. The incubation was then continued for 72 hours. After 72 hours the growth of the cells was assessed by the addition of the CellTiterGlo reagent (Promega G9242) as instructed by the provider. The luminescent signal was recorded on a SpectraMax M2 microplate reader. The signal obtained in wells containing cells cultivated in the absence of compound was set to 100% growth after subtracting the signal obtained in medium only wells. The % growth in each well was calculated by subtracting the medium only value and dividing through the 100% growth value. The IC50 for cell growth, the concentration of compound at which cell growth was reduced to 50%, was calculated with the GraFit6 software (Erythacus software).

MNK1 = target: T1, MNK1 (Homo sapiens, UniProt Q9BUB5); assay: MNK inhibition assay (Z-Lyte kinase assay, Ser/Thr 7 peptide); type: biochemical; details: for IC50: recombinant GST-MNK1, 3 hours at 31° C.
T1 construct: purchased Life Technologies or Carna Biosciences PV6023 or 02-145; host or cells: baculovirus infected insect cells
T1 sequence (Q9BUB5 whole entry): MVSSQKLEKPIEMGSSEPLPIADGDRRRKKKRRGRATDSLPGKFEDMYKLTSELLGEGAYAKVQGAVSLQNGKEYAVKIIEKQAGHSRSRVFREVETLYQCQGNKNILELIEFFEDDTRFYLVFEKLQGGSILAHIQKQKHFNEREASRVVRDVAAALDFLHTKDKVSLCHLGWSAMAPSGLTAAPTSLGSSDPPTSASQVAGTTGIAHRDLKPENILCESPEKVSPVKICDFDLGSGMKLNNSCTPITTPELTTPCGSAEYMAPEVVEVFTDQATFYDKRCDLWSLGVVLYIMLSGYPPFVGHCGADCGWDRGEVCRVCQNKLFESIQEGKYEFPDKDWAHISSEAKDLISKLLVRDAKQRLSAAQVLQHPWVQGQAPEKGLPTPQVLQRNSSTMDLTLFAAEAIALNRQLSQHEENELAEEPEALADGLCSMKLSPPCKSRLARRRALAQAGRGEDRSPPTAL
Source text: For the measurement of the activity of the MNK1 kinase the Z-Lyte kinase assay system was used. The kinase activity of MNK1 can be quantified with the Z-Lyte kinase assay kit Ser/Thr 7 peptide (Life Technologies PV3180). The kit was utilized according to the instructions of the provider. A recombinant GST-MNK1 fusion protein produced in and purified from baculovirus infected insect cells was used as enzyme source (GST-MNK1 Life Technologies PV6023 or Carna Biosciences 02-145). It was verified that both sources of the MNK1 enzyme gave similar IC50 values with several compounds. The MNK1 enzyme assay was performed in 384 well round bottom black microtiter plates (Corning 3676). The kinase reaction was performed for 3 hours at 31° C. As instructed by the provider of the kit the amount of enzyme was chosen such that ˜30% of the substrate peptide was phosphorylated in control wells containing buffer only. The MNK1 inhibiting activity of compounds was tested by adding the compounds to the kinase reaction at a concentration of 10000, 5000, 2000, 1000, 500, 200, 100, 50 nM. Compounds with strong MNK1 inhibition were tested at 20, 10, 5, 2, 1 and 0.5 nM in addition. Each compound concentration was tested at least in duplicate. The % phosphorylation of the substrate peptide at each compound concentration was calculated as described in the assay manual. The fluorescent signals were recordes on Biotek Cytation 3 microplate reader. The IC50, the concentration that reduced substrate phosphorylation by 50% if compared to buffer only wells, was calculated with the Grafit 6 software (Erythacus software).

[2] = read-out: Inhibition of MNK1 activity at indicated concentration

Compound | IC50 [1] [µM] | inhibition at 1 µM (MNK1; [2]) [%] | inhibition at 10 µM (MNK1; at 10 μM, read-out: Inhibition of MNK1 activity at indicated concentration) [%] | IC50 (MNK1) [µM] | inhibition at 100 µM [1] [%]
Cn1nccc1Nc1ccc2cncc(-c3cc4ccccc4o3)c2c1 [Example 98, 4-(Benzofuran-2-yl)-N-(2-methylpyrazol-3-yl)isoquinolin-6-amine] | 9.88 | 40 |  |  | 
CN(C)CCNc1ccc2cncc(-c3cc4ccccc4o3)c2c1 [Example 99, N-[4-(Benzofuran-2-yl)-6-isoquinolyl]-N′,N′-dimethyl-ethane-1,2-diamine] | 4.39 | 60 |  |  | 
NCCNc1ccc2cncc(-c3cc4ccccc4o3)c2c1 [Example 100, N′-[4-(Benzofuran-2-yl)-6-isoquinolyl]ethane-1,2-diamine] | 4.01 |  | 51 |  | 
Cn1nccc1NCc1ccc2cncc(-c3cc4ccccc4o3)c2c1 [Example 101] | 18.9 |  |  | 0.18 | 
NCCOc1ccc2cncc(-c3cc4ccccc4o3)c2c1 [Example 102, 2-[[4-(Benzofuran-2-yl)-6-isoquinolyl]oxy]ethanamine] | 7 |  |  | 1.05 | 
NCCCNC(=O)c1ccc2cncc(-c3cc4ccccc4o3)c2n1 [Example 103, N-(3-aminopropyl)-8-(benzofuran-2-yl)-1,6-naphthyridine-2-carboxamide] | 4.12 |  |  | 0.088 | 
NCCCOCc1ccc2cncc(-c3cc4ccccc4o3)c2c1 [Example 105, 3-[[4-(Benzofuran-2-yl)-6-isoquinolyl]methoxy]propan-1-amine] | 12.8 |  |  | 0.089 | 
NCCCOCc1ccc2c(N)ncc(-c3cc4ccccc4o3)c2c1 [Example 109, 6-(3-Aminopropoxymethyl)-4-(benzofuran-2-yl)isoquinolin-1-amine] | 8.54 |  |  | 0.687 | 
NCCCOCc1ccc2c(N)ncc(-c3ccc(Cl)cc3)c2c1 [Example 110] | 11.3 |  |  | 0.395 | 
NCCCOCc1ccc2c(N)ncc(-c3ccc(Cl)c(Cl)c3)c2c1 [Example 111] | 8.32 |  |  | 1.15 | 
NCCCOCc1ccc2c(N)ncc(-c3ccc(NC(=O)Nc4ccccc4)cc3)c2c1 [Example 112, 1-[4-[1-Amino-6-(3-aminopropoxymethyl)-4-isoquinolyl]phenyl]-3-phenyl-urea] | 43.8 | 19 |  |  | 
CC(C)(C)c1cc(NC(=O)Nc2ccc(-c3cncc4ccc(CN5CCC(N)CC5)cc34)cc2)no1 [Example 116] | 3.07 |  |  | 0.887 | 
NC1CCN(Cc2ccc3cncc(-c4ccc(NC(=O)NC5CC5)cc4)c3c2)CC1 [Example 118] |  |  |  | 0.422 | 48
Cc1cc(NC(=O)Nc2ccc(-c3cncc4ccc(CN5CCC(N)CC5)cc34)cc2)on1 [Example 120, 1-[4-[6-[(4-Amino-1-piperidyl)methyl]-4-isoquinolyl]phenyl]-3-(3-methylisoxazol-5-yl)urea] | 18.7 |  |  | 0.683 | 
Cc1cc(NCc2ccc3cncc(-c4cc5ccccc5o4)c3c2)cc(C)n1 [Example 126] | 5.5 |  |  | 0.363 | 
c1ccc2oc(-c3cncc4ccc(CNc5ccncn5)cc34)cc2c1 [Example 128] | 15.8 |  |  | 0.084 | 
Nc1cc(NCc2ccc3cncc(-c4cc5ccccc5o4)c3c2)ccn1 [Example 130, N4-[[4-(Benzofuran-2-yl)-6-isoquinolyl]methyl]pyridine-2,4-diamine] | 0.58 |  |  | 0.021 | 
c1cncc(Nc2ccc3cncc(-c4cc5ccccc5o4)c3c2)c1 [Example 134] |  |  |  | 4.68 | 45
Nc1cccc(Nc2ccc3cncc(-c4cc5ccccc5o4)c3c2)c1 [Example 135] | 10.9 |  |  | 4.68 | 
NCc1cccc(Nc2ccc3cncc(-c4cc5ccccc5o4)c3c2)c1 [Example 136] | 20.6 |  |  | 0.558 | 
Nc1cc(Nc2ccc3cncc(-c4cc5ccccc5o4)c3c2)ccn1 [Example 137, N4-[4-(Benzofuran-2-yl)-6-isoquinolyl]pyridine-2,4-diamine] | 3.25 |  |  | 1.09 | 
Nc1ccc(Nc2ccc3cncc(-c4cc5ccccc5o4)c3c2)cn1 [Example 138, N5-[4-(Benzofuran-2-yl)-6-isoquinolyl]pyridine-2,5-diamine] | 12.1 |  |  | 1.6 | 
c1ccc2oc(-c3cncc4ccc(Nc5ccncc5)cc34)cc2c1 [Example 139, 4-(Benzofuran-2-yl)-N-(4-pyridyl)isoquinolin-6-amine] | 10.4 |  |  | 0.903 | 

Further lines, with some results ahead:

IC50 [1] [µM] | inhibition at 1 µM (MNK1; [2]) [%] | inhibition at 10 µM (MNK1; at 10 μM, read-out: Inhibition of MNK1 activity at indicated concentration) [%] | IC50 (MNK1) [µM] | Compound | inhibition at 100 µM [1] [%]
20.7 | 34 |  |  | NCCCOCc1ccc2cncc(-c3ccc(Cl)cc3)c2c1 [Example 106] | 
21 |  |  | 1.12 | NCCCOCc1ccc2cncc(-c3ccc(Cl)c(Cl)c3)c2c1 [Example 107] | 
15 |  |  | 3.51 | NCCCOCc1ccc2cncc(-c3ccc(NC(=O)Nc4ccccc4)cc3)c2c1 [Example 108, 1-[4-[6-(3-Aminopropoxymethyl)-4-isoquinolyl]phenyl]-3-phenyl-urea] | 
9.21 |  |  | 3.15 | NC1CCN(Cc2ccc3cncc(-c4ccc(NC(=O)Nc5ccc(Cl)cc5)cc4)c3c2)CC1 [Example 113, 1-[4-[6-[(4-Amino-1-piperidyl)methyl]-4-isoquinolyl]phenyl]-3-(4-chlorophenyl)urea] | 
3.83 |  |  | 1.21 | NC1CCN(Cc2ccc3cncc(-c4ccc(NC(=O)Nc5cccc(Cl)c5)cc4)c3c2)CC1 [Example 114] | 
 |  |  | 0.49 | NC1CCN(Cc2ccc3cncc(-c4ccc(NC(=O)Nc5ccncc5)cc4)c3c2)CC1 [Example 115] | 52
 |  |  | 0.603 | NC1CCN(Cc2ccc3cncc(-c4ccc(NC(=O)Nc5cccnc5)cc4)c3c2)CC1 [Example 117] | 34
2.56 |  |  | 0.388 | NC1CCN(Cc2ccc3cncc(-c4ccc(NC(=O)Nc5ccccn5)cc4)c3c2)CC1 [Example 119] | 
21.8 |  |  | 0.165 | Nc1cc[n+](Cc2ccc3cncc(-c4ccccc4)c3c2)cc1 [Example 121, 1-[(4-Phenyl-6-isoquinolyl)methyl]pyridin-1-ium-4-amine] | 
 |  |  | 0.028 | Nc1cc[n+](Cc2ccc3cncc(-c4ccc(O)cc4)c3c2)cc1 [Example 122] | 37
7.92 |  |  | 0.132 | Nc1cc[n+](Cc2ccc3cncc(-c4ccc(Cl)cc4)c3c2)cc1 [Example 123] | 
45.8 |  |  | 2.08 | Nc1cc[n+](Cc2ccc3cncc(-c4ccc(NC(=O)Nc5ccccc5)cc4)c3c2)cc1 [Example 124] | 
4.04 |  |  | 0.052 | Cc1cc(N)cc[n+]1Cc1ccc2cncc(-c3cc4ccccc4o3)c2c1 [Example 125, 1-[[4-(Benzofuran-2-yl)-6-isoquinolyl]methyl]-2-methyl-pyridin-1-ium-4-amine] | 
8.48 |  |  | 0.021 | Nc1cc[n+](Cc2ccc3cncc(-c4cc5ccccc5o4)c3c2)nc1 [Example 127] | 
23.1 |  |  | 0.143 | Nc1ccc(NCc2ccc3cncc(-c4cc5ccccc5o4)c3c2)cn1 [Example 129] | 
 |  |  | 3.12 | Nc1ccc(Nc2ccc3cncc(-c4cc5ccccc5o4)c3c2)cc1 [Example 132, N1-[4-(Benzofuran-2-yl)-6-isoquinolyl]benzene-1,4-diamine] | 53
11.5 |  |  | 0.152 | NCc1ccc(Nc2ccc3cncc(-c4cc5ccccc5o4)c3c2)cc1 [Example 133] | 

— patent US20200031811A1, “SUBSTITUTED MONO- AND POLYAZANAPHTHALENE DERIVATIVES AND THEIR USE” (Basilea Pharmaceutica International AG, priority 2015, published 2020)
